Data reported in US7396837B2, “Antitumoral analogs of lamellarins” (Pharma Mar, S.A.U., priority 2002, dated 2008).

What was measured:
Type in all cases: cell-based
DU-145 = assay: SRB colorimetric cell growth inhibition assay, DU-145; details: Homo sapiens, DU-145, DU-145; for GI50: GI=growth inhibition, read-out: GI50 DU-145; for CC50: LC=cell killing (cytotoxic effect), read-out: LC50 DU-145; for IC (TGI): TGI=total growth inhibition (cytostatic effect), read-out: TGI DU-145
In short: (§1)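 Quantitation uses the sulforhodamine B reaction on cells exposed to sample for the whole assay period; results (mean ± SD, n = 3 wells) yield GI, TGI and LC.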

IGROV-ET = assay: SRB colorimetric cell growth inhibition assay, IGROV-ET (ET-743 resistant); details: Homo sapiens, IGROV-ET; for GI50: GI=growth inhibition, read-out: GI50 IGROV-ET; for CC50: LC=cell killing (cytotoxic effect), read-out: LC50 IGROV-ET; for IC (TGI): TGI=total growth inhibition (cytostatic effect), read-out: TGI IGROV-ET
In short: as §1

PANC-1 = assay: SRB colorimetric cell growth inhibition assay, PANC-1; details: Homo sapiens, PANC-1, PANC-1; for GI50: GI=growth inhibition, read-out: GI50 PANC-1; for CC50: LC=cell killing (cytotoxic effect), read-out: LC50 PANC-1; for IC (TGI): TGI=total growth inhibition (cytostatic effect), read-out: TGI PANC-1
In short: as §1

H-MEC-1 = assay: SRB colorimetric cell growth inhibition assay, H-MEC-1; details: Homo sapiens, HMEC-1, H-MEC-1; for GI50: GI=growth inhibition; for IC (TGI): TGI=total growth inhibition (cytostatic effect), read-out: TGI H-MEC-1
In short: (§2)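 Growth and viability quantified by sulforhodamine B staining in 96-well microplates. Triplicate wells give mean ± SD; derived endpoints are GI, TGI (cytostatic) and LC (cytotoxic).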

[1] = as above; details: human, H-MEC-1 cells, H-MEC-1; LC=cell killing (cytotoxic effect); read-out: LC50 H-MEC-1
In short: as §2

HT-29 = assay: SRB colorimetric cell growth inhibition assay, HT-29; details: Homo sapiens, HT-29, HT-29; for GI50: GI=growth inhibition, read-out: GI50 HT-29; for CC50: LC=cell killing (cytotoxic effect), read-out: LC50 HT-29; for IC (TGI): TGI=total growth inhibition (cytostatic effect), read-out: TGI HT-29
In short: as §1

LoVo = assay: SRB colorimetric cell growth inhibition assay, LoVo; details: Homo sapiens, LoVo; for GI50: GI=growth inhibition, read-out: GI50 LOVO; for CC50: LC=cell killing (cytotoxic effect), read-out: LC50 LOVO; for IC (TGI): TGI=total growth inhibition (cytostatic effect), read-out: TGI LOVO
In short: as §1

SK-MEL-28 = assay: SRB colorimetric cell growth inhibition assay, SK-MEL-28; details: Homo sapiens, SK-MEL-28, MEL-28; for GI50: GI=growth inhibition, read-out: GI50 MEL-28; for CC50: LC=cell killing (cytotoxic effect), read-out: LC50 MEL-28; for IC (TGI): TGI=total growth inhibition (cytostatic effect), read-out: TGI MEL-28
In short: as §1

LoVo-Dox = assay: SRB colorimetric cell growth inhibition assay, LoVo-Dox (MDR); details: Homo sapiens, LOVO-DOX; for GI50: GI=growth inhibition, read-out: GI50 LOVO-DOX; for CC50: LC=cell killing (cytotoxic effect), read-out: LC50 LOVO-DOX; for IC (TGI): TGI=total growth inhibition (cytostatic effect), read-out: TGI LOVO-DOX
In short: as §1

A-549 = assay: SRB colorimetric cell growth inhibition assay, A-549; details: Homo sapiens, A549, A-549; for GI50: GI=growth inhibition, read-out: GI50 A-549; for CC50: LC=cell killing (cytotoxic effect), read-out: LC50 A-549; for IC (TGI): TGI=total growth inhibition (cytostatic effect), read-out: TGI A-549
In short: as §1

K-562 = assay: SRB colorimetric cell growth inhibition assay, K-562; details: Homo sapiens, K562, K-562; for GI50: GI=growth inhibition, read-out: GI50 K-562; for CC50: LC=cell killing (cytotoxic effect), read-out: LC50 K-562; for IC (TGI): TGI=total growth inhibition (cytostatic effect), read-out: TGI K-562
In short: as §1

SKOV-3 = assay: SRB colorimetric cell growth inhibition assay, SKOV-3; details: Homo sapiens; for GI50: SK-OV-3, SKOV-3, GI=growth inhibition, read-out: GI50 SKOV-3; for CC50 / IC (TGI): SK-OV-3, SKOV-3; for CC50: LC=cell killing (cytotoxic effect), read-out: LC50 SKOV-3; for IC (TGI): TGI=total growth inhibition (cytostatic effect), read-out: TGI SKOV-3
In short: as §2

LNCaP = assay: SRB colorimetric cell growth inhibition assay, LNCaP; details: Homo sapiens, LNCaP, LN-caP; for GI50: GI=growth inhibition, read-out: GI50 LN-caP; for CC50: LC=cell killing (cytotoxic effect), read-out: LC50 LN-caP; for IC (TGI): TGI=total growth inhibition (cytostatic effect), read-out: TGI LN-caP
In short: as §1

IGROV = assay: SRB colorimetric cell growth inhibition assay, IGROV; details: Homo sapiens, IGROV; for GI50: GI=growth inhibition, read-out: GI50 IGROV; for CC50: LC=cell killing (cytotoxic effect), read-out: LC50 IGROV; for IC (TGI): TGI=total growth inhibition (cytostatic effect), read-out: TGI IGROV
In short: as §1

SK-BR-3 = assay: SRB colorimetric cell growth inhibition assay, SK-BR-3; details: Homo sapiens, SK-BR-3, SK-BR-3; for GI50: GI=growth inhibition, read-out: GI50 SK-BR-3; for CC50: LC=cell killing (cytotoxic effect), read-out: LC50 SK-BR-3; for IC (TGI): TGI=total growth inhibition (cytostatic effect), read-out: TGI SK-BR-3
In short: as §1

Compound: COc1cc2c(cc1OC)-c1c(-c3ccc(OC(=O)[C@H](C)N)c(OC)c3)c3c4cc(OC)c(OC(=O)[C@H](C)N)cc4oc(=O)c3n1CC2 [Compound 63]
- GI50 (DU-145): 2.2 µM
- CC50 (DU-145): 11.7 µM
- IC (TGI) (DU-145): 5.08 µM
- GI50 (IGROV-ET): 0.64 µM
- CC50 (IGROV-ET): 15.2 µM
- IC (TGI) (IGROV-ET): 2.86 µM
- GI50 (PANC-1): 1.93 µM
- CC50 (PANC-1): 13.2 µM
- IC (TGI) (PANC-1): 5.05 µM
- GI50 (H-MEC-1): 2.72 µM
- IC (TGI) (H-MEC-1): 5.25 µM
- CC50 [1]: 10.1 µM
- GI50 (HT-29): 2.92 µM
- CC50 (HT-29): 11.1 µM
- IC (TGI) (HT-29): 5.7 µM
- GI50 (LoVo): 1.46 µM
- CC50 (LoVo): 9.11 µM
- IC (TGI) (LoVo): 3.68 µM
- GI50 (SK-MEL-28): 2.34 µM
- CC50 (SK-MEL-28): 10.1 µM
- IC (TGI) (SK-MEL-28): 4.87 µM
- GI50 (LoVo-Dox): 0.909 µM
- CC50 (LoVo-Dox): 9.85 µM
- IC (TGI) (LoVo-Dox): 2.95 µM
- GI50 (A-549): 2.84 µM
- CC50 (A-549): 10.9 µM
- IC (TGI) (A-549): 5.57 µM
- GI50 (K-562): 2.9 µM
- CC50 (K-562): 15.2 µM
- IC (TGI) (K-562): 6.75 µM
- GI50 (SKOV-3): 3.06 µM
- CC50 (SKOV-3): 11.1 µM
- IC (TGI) (SKOV-3): 5.84 µM
- GI50 (LNCaP): 1.13 µM
- CC50 (LNCaP): 9.61 µM
- IC (TGI) (LNCaP): 3.47 µM
- GI50 (IGROV): 0.975 µM
- CC50 (IGROV): 14.6 µM
- IC (TGI) (IGROV): 3.86 µM
- GI50 (SK-BR-3): 1.57 µM
- CC50 (SK-BR-3): 14.7 µM
- IC (TGI) (SK-BR-3): 4.8 µM

Compound: COc1cc(-c2c3n(c4c(=O)oc5cc(OC(=O)[C@@H](N)COCc6ccccc6)c(OC)cc5c24)CCc2c-3cc(OC)c(OC)c2OC(=O)[C@@H](N)COCc2ccccc2)ccc1OC(=O)[C@@H](N)COCc1ccccc1 [Compound 66]
- GI50 (DU-145): 1.73 µM
- CC50 (DU-145): 7.12 µM
- IC (TGI) (DU-145): 3.65 µM
- GI50 (IGROV-ET): 1.22 µM
- CC50 (IGROV-ET): 6.87 µM
- IC (TGI) (IGROV-ET): 2.9 µM
- GI50 (PANC-1): 1.95 µM
- CC50 (PANC-1): 7.12 µM
- IC (TGI) (PANC-1): 7.12 µM
- GI50 (H-MEC-1): 1.52 µM
- IC (TGI) (H-MEC-1): 2.73 µM
- CC50 [1]: 4.93 µM
- GI50 (HT-29): 2.77 µM
- CC50 (HT-29): 7.12 µM
- IC (TGI) (HT-29): 6.77 µM
- GI50 (LoVo): 2.19 µM
- CC50 (LoVo): 7.12 µM
- IC (TGI) (LoVo): 7.12 µM
- GI50 (SK-MEL-28): 1.42 µM
- CC50 (SK-MEL-28): 4.55 µM
- IC (TGI) (SK-MEL-28): 2.55 µM
- GI50 (LoVo-Dox): 1.91 µM
- CC50 (LoVo-Dox): 7.12 µM
- IC (TGI) (LoVo-Dox): 5.56 µM
- GI50 (A-549): 1.86 µM
- CC50 (A-549): 6.43 µM
- IC (TGI) (A-549): 3.46 µM
- GI50 (K-562): 0.982 µM
- CC50 (K-562): 7.12 µM
- IC (TGI) (K-562): 2.8 µM
- GI50 (SKOV-3): 2.85 µM
- CC50 (SKOV-3): 7.12 µM
- IC (TGI) (SKOV-3): 6.28 µM
- GI50 (LNCaP): 0.89 µM
- CC50 (LNCaP): 4.03 µM
- IC (TGI) (LNCaP): 1.89 µM
- GI50 (IGROV): 1.35 µM
- CC50 (IGROV): 6.75 µM
- IC (TGI) (IGROV): 3.02 µM
- GI50 (SK-BR-3): 0.434 µM
- CC50 (SK-BR-3): 7.12 µM
- IC (TGI) (SK-BR-3): 1.82 µM
